# Laboratory results: patent US20070042962A1, “Peptide dependent upregulation of telomerase expression” (priority 2002, published 2007)
# Ends that are not written are not given here.
# Assays:
# telomerase [1] = test: TRAP telomerase assay in mouse neuroblastoma cells (NB2a/DL); format: cell-based; conditions: CMX-1 100 μg/ml or CMX-3 70 μg/ml, 6 and 24 hours
# Procedure: Telomerase activity was assayed in human cells and tumors by telomeric repeat amplification protocol (TRAP) (see, Piatsyzek, Methods in Cell Science, 17:1 (1995)). Whole cell lysates were prepared from approximately 10^6 Nb2a cells. Cells were washed once with PBS, repelleted, and 20 μl of lysate buffer (10 mM Tris-HCl pH 7.5, 1 mM MgCl2, 1 mM EGTA, 0.1 mM benzamidine, 5 mM β-mercaptoethanol, 0.5% CHAPS, 10% glycerol) was added directly to the washed pellets. The suspensions were incubated on ice for 30 minutes to allow cell swelling and lysis. Lysates were cleared by centrifugation at 12,000×g for 20 minutes at 4° C. Total protein concentration was determined for the cleared supernatant using a Coomassie Reagent protocol (Pierce). Supernatants were stored at −70° C.
# Telomerase activity was measured in total cellular lysates using a telomeric repeat amplification protocol (TRAP). […]
# Telomerase-induced hexamer extensions to the TS primer were performed in a 50 μl reaction volume containing 20 mM Tris-HCl (pH 8.3), 1.5 mM MgCl2, 63 mM KCl, 0.05% Tween-20, 1 mM EGTA, 50 μM dNTPs, 0.1 pmol ^32P-labeled TS primer, 1 pmol reverse primer RP (CTAACCCTAACCCTAACC) (SEQ ID NO:31), 1.0 μg cell lysate, and 2 U Taq polymerase (Ambion). […] Ladders were quantitated by excision from the gel, and counting in a Bench Count (Beckman). […]
# telomerase [2] = test: TRAP telomerase assay in primary cortical rat brain cell cultures; format: cell-based; conditions: for upregulation of expression of telomerase (TRAP): primary rat brain cortical cultures, 1-70 μg/ml
# Procedure: (§1) Telomerase activity was measured in total cellular lysates using a telomeric repeat amplification protocol (TRAP). DNA oligomer “TS” 18-mer (AATCCGTCGAGCAGAGTT) (SEQ ID NO:30) was end-labeled with P^32 in a 20 μl reaction containing 50 mM Tris-HCl (pH 7.5), 10 mM MgCl2, 0.1 mM EDTA, 1 mM DTT, 1 pmol TS primer, 1 pmol [γ-^32P]-ATP (4,500 Ci/mmol), and 5 U polynucleotide kinase (Ambion). The reaction was incubated for 20 minutes at 37° C., and then stopped by incubating for 5 minutes at 85° C. Labeled TS oligomer was stored at −20° C. until use.
# (§2) Telomerase-induced hexamer extensions to the TS primer were performed in a 50 μl reaction volume containing 20 mM Tris-HCl (pH 8.3), 1.5 mM MgCl2, 63 mM KCl, 0.05% Tween-20, 1 mM EGTA, 50 μM dNTPs, 0.1 pmol ^32P-labeled TS primer, 1 pmol reverse primer RP (CTAACCCTAACCCTAACC) (SEQ ID NO:31), 1.0 μg cell lysate, and 2 U Taq polymerase (Ambion). The reaction was incubated for 30 minutes at 30° C. Hexamer extensions were then amplified by PCR using the following program: denaturation at 94° C. for 30 seconds, annealing at 59° C. for 30 seconds, 27 cycles denaturation/annealing. Radiolabeled ladders were separated by electrophoresis on 10% polyacrylamide gels, dried onto 3 MM paper, and visualized by autoradiography with Kodak X-Omat AR film. Exposure times averaged 4 hours at 25° C. Ladders were quantitated by excision from the gel, and counting in a Bench Count (Beckman).
# The ability of representative peptide compounds described herein to upregulate telomerase was also tested in primary cortical cultures of rat brain using the TRAP telomerase assay described above.
# […] […] Negative control cultures were not exposed to a peptide compound during the growth period.
# In this case, the P^32-labeled DNA precursors were incorporated into the series of hexamer base pairs showing the upregulation of the telomerase. The total radioactivity corresponding to base pairs ladders from 50 to 80 bp was measured by counting the particular region of the gel. […] The highest concentrations of peptide compound tested produced increasingly less upregulation of the enzyme, as is typically observed at some point along most dose response curves.
# [3] = system: glutathione peroxidase (GPX); conditions: rat brain cells; same nanogram amounts (1 ng/ml, 24 h); data not shown
# Procedure: (§3) Primary cortical rat brain cell cultures were prepared as described above in Example 4 except that cells were cultured following a 24-hour exposure to 0 or 1 nanograms (ng)/ml of CMX-4. […] Positive control (“Pos”) represents the analysis of 1 μg of protein from a total cell lysate of immortalized HeLa cells.
# (§4) In addition, the levels of antioxidative enzymes superoxide dismutase (SOD), catalase (CAT), and glutathione peroxidase (GPX) were determined using a standard immunoblotting protocol (see, Adams et al., J. Cell. Biochem., 77: 221-233 (2000)).
# [4] = system: superoxide dismutase (SOD); conditions: rat brain cells; same nanogram amounts (1 ng/ml, 24 h); data not shown
# Procedure: as §3, §4
# catalase (CAT) = test: Immunoblotting of catalase in primary cortical rat brain cell cultures; format: cell-based; conditions: same nanogram amounts (1 ng/ml, 24 h), data not shown
# telomerase [5] = test: TRAP telomerase assay of tissue homogenates from old mice orally treated for 30 days; format: in vivo, mouse
# Procedure: as §1, §2
# The ability of peptide compounds described herein to upregulate telomerase in old and young mice was also studied. Here, the old mice (17 months old) were treated daily by gavage for 30 days with an oral dose of peptide CMX-2 in saline at doses of 0, 0.03, 0.3, and 3.3 mg of peptide compound per kilogram (kg) of body weight. Control animals received saline only without peptide compound. Animals were sacrificed by decapitation after 30 days and dissected to isolate the brain, heart, and liver, which was frozen at −70° C. for subsequent analysis. […]
# Telomerase activity was then measured in the cytoplasmic protein fraction of tissue homogenates.
substance,measurement,setting,value
Asp Gly [CMX-3],upregulation of telomerase over control levels (TRAP),telomerase [1],upregulated
same,upregulation of expression of telomerase (TRAP),telomerase [2],upregulated
same,upregulation of telomerase over control at dose of maximum effect,"telomerase [2]; primary rat cortical cultures, 1 μg/ml (maximum effect)",2 fold
DGDGDFAIDAPE [CMX-1],upregulation of telomerase over control levels (TRAP),telomerase [1],upregulated
same,upregulation of expression of telomerase (TRAP),telomerase [2],upregulated
same,increase in the level of telomerase expression relative to control levels,"telomerase [2]; primary rat cortical cultures, 10 μg/ml",greater than 4 fold
same,shape of dose-response curve of telomerase upregulation,"telomerase [2]; primary rat cortical cultures, 1, 10, 70 μg/ml",inverted U-shape
"R1 Asp Gly, wherein R1 is the iodine-substituted thyronine amino terminal capping group, 3,5,3′-triiodothyronine [CMX-4]",upregulation of glutathione peroxidase (GPX) compared to untreated control cells,[3],upregulated
same,upregulation of superoxide dismutase (SOD) compared to untreated control cells,[4],upregulated
same,upregulation of telomerase (TRAP),"telomerase [2]; primary cortical rat brain cells, 1 ng/ml, 24-hour exposure",effective at upregulating telomerase
same,upregulation of catalase (CAT) compared to untreated control cells,catalase (CAT),upregulated
[Ac] Asp Gly Glu Ala (Ac-DGEA; listed as Homo sapiens) [CMX-2],telomerase activity of brain tissue homogenates relative to untreated controls,"telomerase [5]; 3.3 mg/kg body weight orally by gavage daily for 30 days, brain",3.2 fold
same,upregulation of telomerase in brain tissue,"telomerase [5]; oral daily for 30 days, brain",upregulated
same,upregulation of telomerase in heart tissue,"telomerase [5]; oral daily for 30 days, heart",upregulated
